Source: patent US20230190690A1, “[…] AND/OR […] FOR CORONAVIRUS DISEASE 2019 (COVID-19)” (NEOPHARMA JAPAN CO., LTD., priority 2020, published 2023)

Tested on: variants of SARS-CoV-2
Assay: Infection of cells with a SARS-CoV-2 variant in the same manner
Format: cell-based
Settings: cells infected with a variant in the same manner

SMILES: NCC(=O)CCC(=O)O [5-ALA, 5-aminolevulinic acid]
- inhibitory effect on SARS-CoV-2 infection and/or proliferation (variant): inhibitory effect on SARS-CoV-2 infection and/or proliferation is expected
